Source: patent US9062051B2, “Compounds and pharmaceutical compositions thereof for the treatment of proliferative disorders” (GALAPAGOS NV, priority 2014, dated 2015)
Read-outs that look alike come from different tables or passages of the source.

Assays:
[1] = Pharmacokinetics in rats (exposure, AUC); type: in vivo, male Sprague Dawley rats; conditions: po; for AUC: male, Sprague Dawley, rat, plasma
Procedure: This study is performed with 6 naïve male Sprague Dawley rats (180-200 g, 6-8 weeks old). Rats are obtained from Janvier, Le Genest St Isle, France.
A controlled environment is maintained in the room with optimal conditions of approximately 15 air changes per hour, a temperature of 22±2 C, a relative humidity of 30-70% and a 12 hour light/dark cycle
Pelleted diet for rodents (UAR A04C-10) is used and is provided ad libitum. Before p.o. dosing, the animals are deprived of food for at least 12 hours before compound administration and 4 hours after administration. All animals had free access to tap water.
Two days before the dosing day, the implantation of a catheter in the jugular vein is done under gaseous anaesthesia with isoflurane.
Rats are dosed intravenously with test compound via a bolus in the tail vein with a dose level of 1 mg/kg. […]
The i.v. bolus and the oral administration are given a dose volume of 5 mL/kg.
From all animals approximately 200 μL blood samples are collected via the catheter and placed into tubes containing Li-heparin as anticoagulant. Blood samples are collected at the various time points (i.v.: 0.05, 0.25, 0.5, 1, 3, 5, 8 and 24 hours after dosing; p.o.: 0.25, 0.5, 1, 3, 5, 8 and 24 hours after dosing).
Blood is kept on ice. Within 1 hour after sampling, blood is centrifuged at 5,000 rpm for 10 min at 4° C. Immediately after centrifugation, the resulting plasma samples are collected into polypropylene tubes and are kept frozen at −20° C. pending bioanalysis.
Plasma samples are assayed by LC-MS/MS. Plasma proteins are precipitated with an excess of methanol containing the internal standard and the corresponding supernatant is injected on a C18 column. Analytes are eluted out the HPLC system by increasing the percentage of the organic mobile phase. An API4000 mass spectrometer (AB Sciex™) is used for the detection and quantification.
Pharmacokinetic parameters are calculated by non-compartmental analysis using WinNonlin® software (Pharsight, version 5.2).

Recombinant EphA7 = target: T1, Recombinant EphA7 (Homo sapiens, UniProt Q15375); assay: EphA7 assay (33P incorporation into poly GT, filter plate); type: biochemical
T1 construct: purchased Carna 08-126
T1 sequence (Q15375 579-998 limits assumed): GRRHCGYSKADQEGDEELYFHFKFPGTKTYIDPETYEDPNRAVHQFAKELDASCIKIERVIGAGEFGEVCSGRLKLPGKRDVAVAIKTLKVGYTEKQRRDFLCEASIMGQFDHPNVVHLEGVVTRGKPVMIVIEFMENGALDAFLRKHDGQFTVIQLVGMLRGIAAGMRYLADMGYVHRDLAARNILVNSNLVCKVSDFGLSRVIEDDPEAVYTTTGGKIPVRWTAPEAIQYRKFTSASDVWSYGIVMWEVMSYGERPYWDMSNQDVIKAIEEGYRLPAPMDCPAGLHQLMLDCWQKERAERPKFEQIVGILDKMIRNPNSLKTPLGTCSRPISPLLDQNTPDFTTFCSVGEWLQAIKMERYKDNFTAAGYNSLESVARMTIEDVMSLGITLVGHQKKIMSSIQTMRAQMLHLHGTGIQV
Procedure: The principle of the assay consists of the measurement of incorporated ^33P into the substrate poly GT when phosphorylated by the enzyme EphA7 using [^33P]-γ-ATP and ATP. Unincorporated ^33P is removed by loading the samples on a filter plate (using a harvester, Perkin Elmer) and 6 subsequent washing steps. ^33P incorporated in polyGT is measured on a Topcount after addition of microscint to the filter plates (Perkin Elmer).
Recombinant EphA7 (Carna Cat#08-126, 2 ng per well) was incubated with 0.1 mg/mL Poly(Glu,Tyr)sodium salt (4:1), MW 20 000-50 000 (Sigma catalog number P0275) in kinase reaction buffer (10 mM MOPS pH 7.2, 5 mM DTT, 0.01% Triton-X100, 5 mM MnCl2, 0.5 mM Na3VO4, 5 mM beta-glycerolphosphate), 0.15 μM non-radioactive ATP, 0.125 μCi/25 μl ^33P-gamma-ATP (Perkin Elmer, catalog number NEG602K) final concentrations with or without 5 μL containing test compound or vehicle (DMSO, 1% final concentration), in a total volume of 25 μL, in a polypropylene 96-well plate (Greiner, V-bottom). After 90 min at 30° C., reactions were stopped by adding of 25 μL/well of 150 mM phosphoric acid. All of the terminated kinase reaction was transferred to prewashed (75 mM phosphoric acid) 96 well filter plates (Perkin Elmer catalog number 6005177) using a cell harvester (Perkin Elmer). Plates were washed 6 times with 300 μL per well of a 75 mM phosphoric acid solution and the bottom of the plates was sealed. 40 μL/well of Microscint-20 was added, the top of the plates was sealed and readout was performed using the Topcount (Perkin Elmer). The ability of a test compound to inhibit the kinase activity was determined using counts per minutes (cpm) measured by the Topcount as:
Cpm (cpd): cpm determined for sample with test compound present
Cpm (control): cpm determined for sample with positive control inhibitor (10 μM staurosporine)
Cpm (vehicle): cpm determined in the presence of vehicle (1% DMSO)
Dose dilution series were prepared for the compounds enabling the testing of dose-response effects in the EphA7 assay and the calculation of the IC50 for each compound. Each compound was routinely tested at concentration of 20 μM followed by a 1/5 serial dilution, 10 points in a final concentration of 1% DMSO. When potency of compound series increased, more dilutions may be prepared and/or the top concentration may be lowered (e.g. 5 μM, 1 μM).

[2] = EphA7 potency, 0.15 μM ATP, read-out: IC50

Row | SMILES | AUC ([1]; 5 mg/kg) [ng·h/mL] | IC50 (Recombinant EphA7; [2]) [nM] | further results
1 | Cc1ccc(NC(=O)c2cccc(C(F)(F)F)c2)cc1-c1ccc2c(C(O)CN3CCOCC3)n[nH]c2n1 (centres unmarked) [Compound 2, N-{3-[3-(1-Hydroxy-2-morpholin-4-yl-ethyl)-1H-pyrazolo[3,4-b]pyridin-6-yl]-4-methyl-phenyl}-3-trifluoromethyl-benzamide] | 852 | – | Exposure AUC ([1]; 5 mg/kg): 659 ng·h/mL
2 | Cc1cccc(C(=O)Nc2ccc(C)c(-c3ccc4c(C(O)CN5CCOCC5)n[nH]c4n3)c2)c1 (centres unmarked) [Compound 3, N-{3-[3-(1-Hydroxy-2-morpholin-4-yl-ethyl)-1H-pyrazolo[3,4-b]pyridin-6-yl]-4-methyl-phenyl}-3-methyl-benzamide] | 214 | > 1000 | Exposure AUC ([1]; 5 mg/kg): 159 ng·h/mL
3 | COc1cc(OC)cc(C(=O)Nc2ccc(C)c(-c3ccc4c(C(O)CN5CCOCC5)n[nH]c4n3)c2)c1 (centres unmarked) [Compound 4, N-{3-[3-(1-Hydroxy-2-morpholin-4-yl-ethyl)-1H-pyrazolo[3,4-b]pyridin-6-yl]-4-methyl-phenyl}-3,5-dimethoxy-benzamide] | – | > 1000 | AUC ([1]; 5 mg/kg, formulated in methylcellulose 5% in water): 407 ng·h/mL
4 | Cc1ccc(C(=O)Nc2cccc(C(F)(F)F)c2)cc1-c1ccc2c(C(O)CN3CCOCC3)n[nH]c2n1 (centres unmarked) [Compound 5, 3-[3-(1-Hydroxy-2-morpholin-4-yl-ethyl)-1H-pyrazolo[3,4-b]pyridin-6-yl]-4-methyl-N-(3-trifluoromethyl-phenyl)-benzamide] | – | 250 to 500 | –
5 | Cc1ccc(NC(=O)c2cccc(N(C)C)c2)cc1-c1ccc2c(C(O)CN3CCOCC3)n[nH]c2n1 (centres unmarked) [Compound 6, 3-Dimethylamino-N-{3-[3-(1-hydroxy-2-morpholin-4-yl-ethyl)-1H-pyrazolo[3,4-b]pyridin-6-yl]-4-methyl-phenyl}-benzamide] | 1790 | > 1000 | –
6 | COc1cc(OC)cc(C(=O)Nc2ccc(C)c(-c3ccc4c(C(C)O)n[nH]c4n3)c2)c1 (centres unmarked) [Compound 9, N-{3-[3-(1-Hydroxy-ethyl)-1H-pyrazolo[3,4-b]pyridin-6-yl]-4-methyl-phenyl}-3,5-dimethoxy-benzamide] | 3260 | > 1000 | –
7 | COc1cc(OC)cc(C(=O)Nc2ccc(C)c(-c3ccc4c(C)n[nH]c4n3)c2)c1 [Compound 11, 3,5-Dimethoxy-N-[4-methyl-3-(3-methyl-1H-pyrazolo[3,4-b]pyridin-6-yl)-phenyl]-benzamide] | – | > 1000 | –
8 | CCc1n[nH]c2nc(-c3cc(NC(=O)c4cc(OC)cc(OC)c4)cnc3C)ccc12 [Compound 13, N-[5-(3-Ethyl-1H-pyrazolo[3,4-b]pyridin-6-yl)-6-methyl-pyridin-3-yl]-3,5-dimethoxy-benzamide] | 1420 | > 1000 | –
9 | Cc1cc(C)cc(C(=O)Nc2ccc(C)c(-c3ccc4c(CO)n[nH]c4n3)c2)c1 [Compound 16, N-[3-(3-Hydroxymethyl-1H-pyrazolo[3,4-b]pyridin-6-yl)-4-methyl-phenyl]-3,5-dimethyl-benzamide] | – | > 1000 | –
10 | COc1cc(OC)cc(C(=O)Nc2cnc(C)c(-c3ccc4c(C)n[nH]c4n3)c2)c1 [Compound 17, 3,5-Dimethoxy-N-[6-methyl-5-(3-methyl-1H-pyrazolo[3,4-b]pyridin-6-yl)-pyridin-3-yl]-benzamide] | 1230 | – | –
11 | CCc1n[nH]c2nc(-c3cc(NC(=O)c4cc(C)cc(OCCN5CCOCC5)c4)ccc3C)ccc12 [Compound 20, N-[3-(3-Ethyl-1H-pyrazolo[3,4-b]pyridin-6-yl)-4-methyl-phenyl]-3-methyl-5-(2-morpholin-4-yl-ethoxy)-benzamide] | – | 500 to 1000 | –
12 | CCc1n[nH]c2nc(-c3cc(NC(=O)c4cc(C)cc(OCCOC)c4)ccc3C)ccc12 [Compound 21, N-[3-(3-Ethyl-1H-pyrazolo[3,4-b]pyridin-6-yl)-4-methyl-phenyl]-3-(2-methoxy-ethoxy)-5-methyl-benzamide] | – | > 1000 | –
13 | COc1cc(OC)cc(C(=O)Nc2ccc(C)c(-c3ccc4c(C5(O)CC5)n[nH]c4n3)c2)c1 [Compound 29, N-{3-[3-(1-Hydroxy-cyclopropyl)-1H-pyrazolo[3,4-b]pyridin-6-yl]-4-methyl-phenyl}-3,5-dimethoxy-benzamide] | 5840 | > 1000 | –
14 | Cc1ccc(NC(=O)c2cccc(C(F)(F)F)c2)cc1-c1ccc2c(C(C)O)n[nH]c2n1 (centres unmarked) [Compound 35, N-{3-[3-(1-Hydroxy-ethyl)-1H-pyrazolo[3,4-b]pyridin-6-yl]-4-methyl-phenyl}-3-trifluoromethyl-benzamide] | 3570 | > 1000 | –
15 | CCc1n[nH]c2nc(-c3cc(NC(=O)c4cc(OC)cc(C(F)(F)F)c4)cnc3C)ccc12 [Compound 49, N-[5-(3-Ethyl-1H-pyrazolo[3,4-b]pyridin-6-yl)-6-methyl-pyridin-3-yl]-3-methoxy-5-trifluoromethyl-benzamide] | – | > 1000 | –
16 | CCc1n[nH]c2nc(-c3cc(NC(=O)c4cc(C)cc(C)c4)cnc3C)ccc12 [Compound 50, N-[5-(3-Ethyl-1H-pyrazolo[3,4-b]pyridin-6-yl)-6-methyl-pyridin-3-yl]-3,5-dimethyl-benzamide] | 1270 | 500 to 1000 | –
17 | Cc1ccc(NC(=O)c2cccc(C(F)(F)F)c2)cc1-c1ccc2c([C@H](C)O)n[nH]c2n1 [Compound 55, N-{3-[3-((S)-1-Hydroxy-ethyl)-1H-pyrazolo[3,4-b]pyridin-6-yl]-4-methyl-phenyl}-3-trifluoromethyl-benzamide] | 965 | 500 to 1000 | AUC ([1]; 3 mg/kg): 1060 ng·h/mL; AUC ([1]; 30 mg/kg): 13600 ng·h/mL
18 | Cc1ccc(NC(=O)c2cccc(C(F)(F)F)c2)cc1-c1cc(C)c2c(N)n[nH]c2n1 [Compound A, N-(3-(3-amino-4-methyl-1H-pyrazolo[3,4-b]pyridin-6-yl)-4-methylphenyl)-3-(trifluoromethyl)benzamide] | 273 | – | IC50 (Recombinant EphA7; comparative compounds, read-out: EphA7 potency IC50): > 1000 nM
